Experimental data taken from patent publication US4865619A, “Use, as a coupler, of 2,4-diamino-1,3-dimethoxybenzene or one of its salts, in combination with oxidation dye precursors, for dyeing human hair, hair dyeing composition containing the said coupler and process for preparing the said coupler” (L'Oreal, priority 1987, dated 1989).

Experiments:
[1] = mutagenicity (coupler stated to be nonmutagenic)
[2] = coloration of hair by the coupler in combination with oxidation dye precursors, oxidizing alkaline medium; design: species or system human
Protocol: According to this process, the dyeing composition described above is mixed at the time of use with a sufficient quantity of an oxidizing solution, and the mixture obtained is then applied on the hair.
The oxidizing solution contains oxidizing agents such as hydrogen peroxide, urea peroxide or persalts such as ammonium persulphate. "20 volumes" hydrogen peroxide solution is preferably used.
The mixture obtained is applied on the hair; it is left in place for 10 to 40 minutes, preferably 15 to 30 minutes, after which the hair is rinsed, washed with shampoo, rinsed again and dried.

- stability of the colorations ([2]; red colorations, in combination with p-aminophenols, oxidizing alkaline medium): good stability
SMILES: COc1ccc(N)c(OC)c1N [2,4-diamino-1,3-dimethoxybenzene]
- mutagenicity [1]: nonmutagenic
- stability of the hues to light, inclement weather and washing ([2]; para-aminophenols, after development in the presence of an oxidizing agent): especially stable to light, to inclement weather and to washing
